Reference: PMC11124822, “Discovery and Anticancer Screening of Novel Oxindole-Based Derivative Bearing Pyridyl Group as Potent and Selective Dual FLT3/CDK2 Kinase Inhibitor” (Pharmaceuticals, 2024)

Columns and labels:
SNB-19 = assay: NCI-60 antiproliferative screen (SRB); type: cell-based, human; details: Homo sapiens; 10 µM single dose, 48 h; SNB-19 (CNS); read-out: Growth inhibition (%)
HCT-15 = assay: NCI-60 antiproliferative screen (SRB); type: cell-based, human; details: Homo sapiens; 10 µM single dose, 48 h; HCT-15 (Colon); read-out: Growth inhibition (%)
NCI-H322M = assay: NCI-60 antiproliferative screen (SRB); type: cell-based, human; details: Homo sapiens; 10 µM single dose, 48 h; NCI-H322M (NSCLC); read-out: Growth inhibition (%)
MDA-MB-435 = assay: NCI-60 antiproliferative screen (SRB); type: cell-based, human; details: Homo sapiens; 10 µM single dose, 48 h; MDA-MB-435 (Melanoma); read-out: Growth inhibition (%)
EKVX = assay: NCI-60 antiproliferative screen (SRB); type: cell-based, human; details: Homo sapiens; 10 µM single dose, 48 h; EKVX (NSCLC); read-out: Growth inhibition (%)
[1] = test system: NCI-60 human cancer cell lines; assay: NCI-60 screen, full panel summary; type: cell-based; details: 10 µM single dose; for Mean Growth Percent: all NCI-60 cell lines
Protocol: In a comprehensive test, compounds were assayed at a single dose concentration (10^−5 M) in the full panel of NCI-60 cancer cell lines.

IGROV1 = assay: NCI-60 antiproliferative screen (SRB); type: cell-based, human; details: Homo sapiens, IGROV-1; 10 µM single dose, 48 h; IGROV1 (Ovarian); read-out: Growth inhibition (%)
NCI-H226 = assay: NCI-60 antiproliferative screen (SRB); type: cell-based, human; details: Homo sapiens; 10 µM single dose, 48 h; NCI-H226 (NSCLC); read-out: Growth inhibition (%)
K-562 = assay: NCI-60 antiproliferative screen (SRB); type: cell-based, human; details: Homo sapiens, K562; 10 µM single dose, 48 h; K-562 (Leukemia); read-out: Growth inhibition (%)
COLO 205 = assay: NCI-60 antiproliferative screen (SRB); type: cell-based, human; details: Homo sapiens; 10 µM single dose, 48 h; COLO 205 (Colon); read-out: Growth inhibition (%)
BT-549 = assay: NCI-60 antiproliferative screen (SRB); type: cell-based, human; details: Homo sapiens; 10 µM single dose, 48 h; BT-549 (Breast); read-out: Growth inhibition (%)
SF-268 = assay: NCI-60 antiproliferative screen (SRB); type: cell-based, human; details: Homo sapiens; 10 µM single dose, 48 h; SF-268 (CNS); read-out: Growth inhibition (%)
786-0 = assay: NCI-60 antiproliferative screen (SRB); type: cell-based, human; details: Homo sapiens; 10 µM single dose, 48 h; 786-0 (Renal); read-out: Growth inhibition (%)
T-47D = assay: NCI-60 antiproliferative screen (SRB); type: cell-based, human; details: Homo sapiens, T47D; 10 µM single dose, 48 h; T-47D (Breast); read-out: Growth inhibition (%)
CCRF-CEM = assay: NCI-60 antiproliferative screen (SRB); type: cell-based, human; details: Homo sapiens; 10 µM single dose, 48 h; CCRF-CEM (Leukemia); read-out: Growth inhibition (%)
TK-10 = assay: NCI-60 antiproliferative screen (SRB); type: cell-based, human; details: Homo sapiens; 10 µM single dose, 48 h; TK-10 (Renal); read-out: Growth inhibition (%)
NCI-H23 = assay: NCI-60 antiproliferative screen (SRB); type: cell-based, human; details: Homo sapiens; 10 µM single dose, 48 h; NCI-H23 (NSCLC); read-out: Growth inhibition (%)
ACHN = assay: NCI-60 antiproliferative screen (SRB); type: cell-based, human; details: Homo sapiens; 10 µM single dose, 48 h; ACHN (Renal); read-out: Growth inhibition (%)
UACC-62 = assay: NCI-60 antiproliferative screen (SRB); type: cell-based, human; details: Homo sapiens; 10 µM single dose, 48 h; UACC-62 (Melanoma); read-out: Growth inhibition (%)
A549/ATCC = assay: NCI-60 antiproliferative screen (SRB); type: cell-based, human; details: Homo sapiens; 10 µM single dose, 48 h; A549/ATCC (NSCLC); read-out: Growth inhibition (%)
SK-MEL-5 = assay: NCI-60 antiproliferative screen (SRB); type: cell-based, human; details: Homo sapiens; 10 µM single dose, 48 h; SK-MEL-5 (Melanoma); read-out: Growth inhibition (%)
NCI-H460 = assay: NCI-60 antiproliferative screen (SRB); type: cell-based, human; details: Homo sapiens; 10 µM single dose, 48 h; NCI-H460 (NSCLC); read-out: Growth inhibition (%)
HOP-92 = assay: NCI-60 antiproliferative screen (SRB); type: cell-based, human; details: Homo sapiens; 10 µM single dose, 48 h; HOP-92 (NSCLC); read-out: Growth inhibition (%)
HT29 = assay: NCI-60 antiproliferative screen (SRB); type: cell-based, human; details: Homo sapiens, HT-29; 10 µM single dose, 48 h; HT29 (Colon); read-out: Growth inhibition (%)
HL-60(TB) = assay: NCI-60 antiproliferative screen (SRB); type: cell-based, human; details: Homo sapiens; 10 µM single dose, 48 h; HL-60(TB) (Leukemia); read-out: Growth inhibition (%)
SN12C = assay: NCI-60 antiproliferative screen (SRB); type: cell-based, human; details: Homo sapiens; 10 µM single dose, 48 h; SN12C (Renal); read-out: Growth inhibition (%)
SK-OV-3 = assay: NCI-60 antiproliferative screen (SRB); type: cell-based, human; details: Homo sapiens; 10 µM single dose, 48 h; SK-OV-3 (Ovarian); read-out: Growth inhibition (%)
LOX IMVI = assay: NCI-60 antiproliferative screen (SRB); type: cell-based, human; details: Homo sapiens; 10 µM single dose, 48 h; LOX IMVI (Melanoma); read-out: Growth inhibition (%)
HS 578T = assay: NCI-60 antiproliferative screen (SRB); type: cell-based, human; details: Homo sapiens; 10 µM single dose, 48 h; HS 578T (Breast); read-out: Growth inhibition (%)

Compound | inhibition at 10 µM (SNB-19) | inhibition at 10 µM (HCT-15) | melting point | inhibition at 10 µM (NCI-H322M) | inhibition at 10 µM (MDA-MB-435) | inhibition at 10 µM (EKVX) | Positive Cytostatic Effect (cell lines with percent growth from 0 to 50 / total number of cell lines) [1] | Positive Cytotoxic Effect (cell lines with percent growth of <0 / total number of cell lines) [1] | Sensitive/Total Cell Lines [1] | The Most Sensitive Cell Line [1] | Mean Growth Percent [1] | inhibition at 10 µM (IGROV1) | inhibition at 10 µM (NCI-H226) | inhibition at 10 µM (K-562) | inhibition at 10 µM (COLO 205) | inhibition at 10 µM (SF-268) | inhibition at 10 µM (786-0) | inhibition at 10 µM (T-47D) | inhibition at 10 µM (CCRF-CEM) | inhibition at 10 µM (TK-10) | also measured
O=C1Nc2cc(Cl)ccc2C1=Cc1ccc(OCc2ccccn2)cc1 (mixture of isomers) [Compound 5h, (E/Z)-6-Chloro-3-[4-(pyridin-2-ylmethoxy)benzylidene]indolin-2-one] | 20% | 45.5% | 260 to 263 °C | 24.7% | 23.9% | 49.4% | 11/56 | 0/56 | 11/56 | OVCAR-4 | 30.77 | 26.2% | 48.6% | 31.4% | -3.47% | 23.2% | 18.7% | 38% | 53.7% | -0.24% | inhibition at 10 µM (BT-549): 33.8%; inhibition at 10 µM (NCI-H23): 47.4%; inhibition at 10 µM (ACHN): 9.61%; inhibition at 10 µM (UACC-62): 49.6%; inhibition at 10 µM (A549/ATCC): 62.5%; inhibition at 10 µM (SK-MEL-5): 24%; inhibition at 10 µM (NCI-H460): 56.7%; inhibition at 10 µM (HOP-92): 35.8%; inhibition at 10 µM (HT29): 19.7%; inhibition at 10 µM (HL-60(TB)): 5.33%; inhibition at 10 µM (SN12C): 24.9%; inhibition at 10 µM (SK-OV-3): 4.39%
O=C1Nc2ccc(F)cc2C1=Cc1ccc(OCc2ccncc2)cc1 (mixture of isomers) [Compound 5n, (E/Z)-5-Fluoro-3-[4-(pyridin-4-ylmethoxy)benzylidene] indolin-2-one] | 60.5% | 78.8% | 233 to 235 °C | 27.6% | 61.7% | 52.2% | 26/59 | 0/59 | 26/59 | SK-MEL-5 | 46.02 | 64.7% | 44.5% | 79.3% | 22.1% | 38.8% | 19.4% | 64.3% | 40.6% | 29.9% | inhibition at 10 µM (LOX IMVI): 67.3%; number of cell lines with cytostatic effects [1]: 26; inhibition at 10 µM (HS 578T): 28.9%; inhibition at 10 µM (NCI-H23): 58.6%; inhibition at 10 µM (ACHN): 70.3%; inhibition at 10 µM (UACC-62): 28.4%; inhibition at 10 µM (A549/ATCC): 29.8%; inhibition at 10 µM (SK-MEL-5): 93.1%; inhibition at 10 µM (NCI-H460): 44.4%; inhibition at 10 µM (HOP-92): 36.9%; inhibition at 10 µM (HT29): 36.4%; inhibition at 10 µM (HL-60(TB)): 57.8%; inhibition at 10 µM (SN12C): 41.3%; inhibition at 10 µM (SK-OV-3): 13.7%
O=C1Nc2ccccc2C1=Cc1ccc(OCc2ccncc2)cc1 (mixture of isomers) [Compound 5m, (E/Z)-3-[4-(Pyridin-4-ylmethoxy)benzylidene] indolin-2-one] | 43.1% | 62.3% | 238 to 240 °C | 20.9% | 49.6% | 63.5% | 14/59 | 0/59 | 14/59 | MDA-MB-468 | 38.04 | 25.4% | 42.4% | 62.7% | 38.3% | 22.7% | 14.6% | 65.1% | 40.5% | 17.9% | inhibition at 10 µM (LOX IMVI): 41.4%; number of cell lines with cytostatic effects [1]: 14; inhibition at 10 µM (HS 578T): 17.9%; inhibition at 10 µM (NCI-H23): 49.8%; inhibition at 10 µM (ACHN): 24.1%; inhibition at 10 µM (UACC-62): 31.1%; inhibition at 10 µM (A549/ATCC): 34.5%; inhibition at 10 µM (SK-MEL-5): 90%; inhibition at 10 µM (NCI-H460): 40.5%; inhibition at 10 µM (HOP-92): 40.2%; inhibition at 10 µM (HT29): 11.2%; inhibition at 10 µM (HL-60(TB)): 55.3%; inhibition at 10 µM (SN12C): 21.4%; inhibition at 10 µM (SK-OV-3): 9.38%
